Test results from USRE39591E1, “6-O-substituted ketolides having antibacterial activity” (Abbott Laboratories, priority 1996, dated 2007).
Values after ≈ are worked out from the molar mass of the structure shown.

Tested on: up to 32 different microorganisms
Assay: in vitro antibacterial activity (MIC), agar dilution on Brain Heart Infusion (BHI) agar with Steers replicator
Format: cell-based
Details: unit assumed
How it was run: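 Agar dilution MIC: twelve successive compound dilutions in BHI agar, spot-inoculated with 1:100 (1:10 for slow growers) organism dilutions by Steers replicator, incubated 35-37° C for 20-24 h. MIC is lowest concentration showing no growth, slight haze or sparse colonies versus drug-free control; erythromycin A as class reference.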

[1] = Candida albicans CCH 442 (code TT)
[2] = Enterococcus faecism ATCC 8043 (code II)
[3] = Escherichia coli DC-2 (code SS)
[4] = Escherichia coli JUHL (code QQ)
[5] = Haemophilis influenzae DILL AMP R (code WW)
[6] = Micrococcus luteus ATCC 4698 (code PP)
[7] = Micrococcus luteus ATCC 9341 (code OO)
[8] = Mycobacterium smegmatis ATCC 114 (code UU)
[9] = Nocardia Asteroides ATCC9970 (code VV)
[10] = Staphylococcus aureus 1775 (code GG)
[11] = Staphylococcus aureus A5177 (code BB)
[12] = Staphylococcus aureus A-5278 (code CC)
[13] = Staphylococcus aureus ATCC 6538P (code AA)
[14] = Staphylococcus aureus CMX 553 (code FF)
[15] = Staphylococcus aureus CMX 642A (code DD)
[16] = Staphylococcus aureus NCTC10649M (code EE)
[17] = Staphylococcus epidermidis 3519 (code HH)
[18] = Streptococcus Pneumonia 5649 (code ZZA)
[19] = Streptococcus Pneumonia 5979 (code ZZ)
[20] = Streptococcus Pneumonia ATCC6303 (code XX)
[21] = Streptococcus Pneumonia GYR 1171 (code YY)
[22] = Streptococcus agalactiae CMX 508 (code KK)
[23] = Streptococcus bovis A-5169 (code JJ)
[24] = Streptococcus pyogenes 930 (code MM)
[25] = Streptococcus pyogenes EES61 (code LL)
[26] = Streptococcus pyogenes PIU 2548 (code NN)

For `CCC1OC(=O)C(C)C(=O)C(C)C(OC2OC(C)CC(N(C)C)C2O)C(C)(OCC=Cc2ccc3cc(O)ccc3c2)CC(C)C(=O)C(C)C2NC(=O)OC12C` (stereo not drawn) [Example 287, Compound of Formula (IX): L is CO, T is NH2, R is —CH2CH═CH-(6-hydroxy-2-naphthyl)], the MIC (organism code AA) was 0.1 µg/mL, the MIC (organism code BB) was 0.1 µg/mL and the MIC (organism code CC) was > 100 µg/mL. The MIC (organism code DD) was 0.1 µg/mL, the MIC (organism code EE) was 0.1 µg/mL and the MIC (organism code FF) was 0.02 µg/mL. For the same molecule, the MIC (organism code GG) was > 100 µg/mL, the MIC (organism code HH) was 0.1 µg/mL and the MIC (organism code II) was 0.05 µg/mL. The MIC (organism code JJ) was 0.02 µg/mL, the MIC (organism code KK) was 0.02 µg/mL and the MIC (organism code LL) was 0.02 µg/mL. It also gave an MIC (organism code MM) of 3.1 µg/mL, an MIC (organism code NN) of 0.1 µg/mL and an MIC (organism code OO) of 0.02 µg/mL. For the same molecule, the MIC (organism code PP) was 0.2 µg/mL, the MIC (organism code QQ) was 50 µg/mL and the MIC (organism code RR) was 0.39 µg/mL. The MIC (organism code SS) was > 100 µg/mL, the MIC (organism code TT) was > 100 µg/mL and the MIC (organism code UU) was 0.39 µg/mL. For the same molecule, the MIC (organism code VV) was 0.05 µg/mL, the MIC (organism code WW) was 2 µg/mL and the MIC (organism code XX) was 0.03 µg/mL. The MIC (organism code YY) was 0.03 µg/mL, the MIC (organism code ZZ) was 4 µg/mL and the MIC (organism code ZZA) was 0.5 µg/mL.
For `CC[C@H]1OC(=O)[C@H](C)C(=O)[C@H](C)[C@@H](O[C@@H]2O[C@H](C)C[C@H](N(C)C)[C@H]2O)[C@@](C)(OCC#Cc2ccc3cc(Cl)ccc3c2)C[C@@H](C)C(=O)[C@H](C)[C@H]2NC(=O)O[C@@]21C` [Example 253, Compound of Formula (IX): L is CO, T is NH, R is —CH2—C≡C-(6-chloro-2-naphthyl)], the MIC (organism code AA) was 0.05 µg/mL, the MIC (organism code BB) was 0.05 µg/mL and the MIC (organism code CC) was > 100 µg/mL. The MIC (organism code DD) was 0.05 µg/mL, the MIC (organism code EE) was 0.1 µg/mL and the MIC (organism code FF) was 0.05 µg/mL. For the same molecule, the MIC (organism code GG) was > 100 µg/mL, the MIC (organism code HH) was 0.05 µg/mL and the MIC (organism code II) was 0.05 µg/mL. It also gave an MIC (organism code JJ) of 0.02 µg/mL, an MIC (organism code KK) of 0.02 µg/mL and an MIC (organism code LL) of 0.01 µg/mL. It also gave an MIC (organism code MM) of 0.78 µg/mL, an MIC (organism code NN) of 0.05 µg/mL and an MIC (organism code OO) of 0.01 µg/mL. The MIC (organism code PP) was 0.1 µg/mL, the MIC (organism code QQ) was 50 µg/mL and the MIC (organism code RR) was 0.3 µg/mL. The MIC (organism code SS) was 50 µg/mL, the MIC (organism code TT) was > 100 µg/mL and the MIC (organism code UU) was 0.2 µg/mL. For the same molecule, the MIC (organism code VV) was 0.02 µg/mL, the MIC (organism code WW) was 2 µg/mL and the MIC (organism code XX) was 0.015 µg/mL. It also gave an MIC (organism code YY) of 0.03 µg/mL, an MIC (organism code ZZ) of 1 µg/mL and an MIC (organism code ZZA) of 0.25 µg/mL.
`CC[C@H]1OC(=O)[C@H](C)C(=O)[C@H](C)[C@@H](O[C@@H]2O[C@H](C)C[C@H](N(C)C)[C@H]2O)[C@@](C)(OCc2ccc3ccccc3c2)C[C@@H](C)C(=O)[C@H](C)[C@@H](O)[C@]1(C)O` [Example 173] was tested, and the MIC [1] was 100 µg/mL (≈ 140 µM), the MIC [2] was 1.56 µg/mL (≈ 2.19 µM) and the MIC [3] was > 100 µg/mL. For the same molecule, the MIC [4] was > 100 µg/mL, the MIC (Escherichia coli SS (code RR)) was 50 µg/mL (≈ 70 µM) and the MIC [5] was 128 µg/mL (≈ 179 µM). The MIC [6] was 3.1 µg/mL (≈ 4.34 µM), the MIC [7] was 0.78 µg/mL (≈ 1.09 µM) and the MIC [8] was 3.1 µg/mL (≈ 4.34 µM). The MIC [9] was 6.2 µg/mL (≈ 8.68 µM), the MIC [10] was 100 µg/mL (≈ 140 µM) and the MIC [11] was 50 µg/mL (≈ 70 µM). For the same molecule, the MIC [12] was 100 µg/mL (≈ 140 µM), the MIC [13] was 12.5 µg/mL (≈ 17.5 µM) and the MIC [14] was 12.5 µg/mL (≈ 17.5 µM). For the same molecule, the MIC [15] was 12.5 µg/mL (≈ 17.5 µM), the MIC [16] was 12.5 µg/mL (≈ 17.5 µM) and the MIC [17] was 12.5 µg/mL (≈ 17.5 µM). It also gave an MIC [18] of 4 µg/mL (≈ 5.6 µM), an MIC [19] of 32 µg/mL (≈ 44.8 µM) and an MIC [20] of 2 µg/mL (≈ 2.8 µM). For the same molecule, the MIC [21] was 2 µg/mL (≈ 2.8 µM), the MIC [22] was 0.78 µg/mL (≈ 1.09 µM) and the MIC [23] was 0.78 µg/mL (≈ 1.09 µM). For the same molecule, the MIC [24] was 50 µg/mL (≈ 70 µM), the MIC [25] was 0.78 µg/mL (≈ 1.09 µM) and the MIC [26] was 3.1 µg/mL (≈ 4.34 µM).
`CC[C@H]1OC(=O)[C@H](C)C(=O)[C@H](C)[C@@H](O[C@@H]2O[C@H](C)C[C@H](N(C)C)[C@H]2O)[C@@](C)(OCC#CBr)C[C@@H](C)C(=O)[C@H](C)[C@H]2NC(=O)O[C@@]21C` [Example 258, Compound of Formula (IX): L is CO, T is NH, R is —CH2—C≡C—Br] was tested, and the MIC (organism code AA) was 0.78 µg/mL, the MIC (organism code BB) was 0.39 µg/mL and the MIC (organism code CC) was > 100 µg/mL. It also gave an MIC (organism code DD) of 0.78 µg/mL, an MIC (organism code EE) of 0.39 µg/mL and an MIC (organism code FF) of 0.78 µg/mL. For the same molecule, the MIC (organism code GG) was > 100 µg/mL, the MIC (organism code HH) was 0.78 µg/mL and the MIC (organism code II) was 0.39 µg/mL. It also gave an MIC (organism code JJ) of 0.05 µg/mL, an MIC (organism code KK) of 0.1 µg/mL and an MIC (organism code LL) of 0.05 µg/mL. The MIC (organism code MM) was > 100 µg/mL, the MIC (organism code NN) was 0.2 µg/mL and the MIC (organism code OO) was 0.1 µg/mL. For the same molecule, the MIC (organism code PP) was 0.39 µg/mL, the MIC (organism code QQ) was > 100 µg/mL and the MIC (organism code RR) was 0.78 µg/mL. The MIC (organism code SS) was > 100 µg/mL, the MIC (organism code TT) was > 100 µg/mL and the MIC (organism code UU) was 12.5 µg/mL. For the same molecule, the MIC (organism code VV) was 0.39 µg/mL, the MIC (organism code WW) was 32 µg/mL and the MIC (organism code XX) was 0.03 µg/mL. The MIC (organism code YY) was 0.03 µg/mL, the MIC (organism code ZZ) was > 128 µg/mL and the MIC (organism code ZZA) was 0.125 µg/mL.
With `CCC1OC(=O)C(C)C(=O)C(C)C(OC2OC(C)CC(N(C)C)C2O)C(C)(OCC=Cc2ccc3[nH]ccc3c2)CC(C)C(=O)C(C)C2NC(=O)OC12C` (stereo not drawn) [Example 190, R is —CH2CH═CH-(5-indolyl)] the MIC [1] was > 100 µg/mL, the MIC [2] was 0.02 µg/mL (≈ 0.0265 µM) and the MIC [3] was 100 µg/mL (≈ 133 µM). For the same molecule, the MIC [4] was 100 µg/mL (≈ 133 µM), the MIC (Escherichia coli SS (code RR)) was 0.2 µg/mL (≈ 0.265 µM) and the MIC [5] was 4 µg/mL (≈ 5.31 µM). It also gave an MIC [6] of 0.1 µg/mL (≈ 0.133 µM), an MIC [7] of 0.01 µg/mL (≈ 0.0133 µM) and an MIC [8] of 0.78 µg/mL (≈ 1.03 µM). For the same molecule, the MIC [9] was 0.1 µg/mL (≈ 0.133 µM), the MIC [10] was > 100 µg/mL and the MIC [11] was 0.05 µg/mL (≈ 0.0663 µM). For the same molecule, the MIC [12] was > 100 µg/mL, the MIC [13] was 0.05 µg/mL (≈ 0.0663 µM) and the MIC [14] was 0.02 µg/mL (≈ 0.0265 µM). For the same molecule, the MIC [15] was 0.05 µg/mL (≈ 0.0663 µM), the MIC [16] was 0.02 µg/mL (≈ 0.0265 µM) and the MIC [17] was 0.05 µg/mL (≈ 0.0663 µM). For the same molecule, the MIC [18] was 0.5 µg/mL (≈ 0.663 µM), the MIC [19] was > 128 µg/mL and the MIC [20] was 0.06 µg/mL (≈ 0.0796 µM). The MIC [21] was 0.03 µg/mL (≈ 0.0398 µM), the MIC [22] was ≤ 0.005 µg/mL and the MIC [23] was ≤ 0.005 µg/mL. The MIC [24] was 12.5 µg/mL (≈ 16.6 µM), the MIC [25] was ≤ 0.005 µg/mL and the MIC [26] was 0.1 µg/mL (≈ 0.133 µM).
With `CC[C@H]1OC(=O)[C@H](C)C(=O)[C@H](C)[C@@H](O[C@@H]2O[C@H](C)C[C@H](N(C)C)[C@H]2O)[C@@](C)(OCC=NOCc2ccnc3ccccc23)C[C@@H](C)C(=O)[C@H](C)[C@H]2NC(=O)O[C@@]21C` [Example 231, Compound of Formula (IX): L is CO, T is NH, R is —CH2CH═NOCH2(4-quinolyl)] the MIC (organism code AA) was 0.1 µg/mL, the MIC (organism code BB) was 0.1 µg/mL and the MIC (organism code CC) was > 100 µg/mL. It also gave an MIC (organism code DD) of 0.1 µg/mL, an MIC (organism code EE) of 0.1 µg/mL and an MIC (organism code FF) of 0.05 µg/mL. For the same molecule, the MIC (organism code GG) was > 100 µg/mL, the MIC (organism code HH) was 0.2 µg/mL and the MIC (organism code II) was 0.02 µg/mL. It also gave an MIC (organism code JJ) of 0.02 µg/mL, an MIC (organism code KK) of 0.02 µg/mL and an MIC (organism code LL) of 0.02 µg/mL. For the same molecule, the MIC (organism code MM) was 100 µg/mL, the MIC (organism code NN) was 0.1 µg/mL and the MIC (organism code OO) was 0.02 µg/mL. It also gave an MIC (organism code PP) of 0.1 µg/mL, an MIC (organism code QQ) of 100 µg/mL and an MIC (organism code RR) of 0.39 µg/mL. The MIC (organism code SS) was 100 µg/mL, the MIC (organism code TT) was > 100 µg/mL and the MIC (organism code UU) was 0.78 µg/mL. The MIC (organism code VV) was 0.05 µg/mL, the MIC (organism code WW) was 2 µg/mL and the MIC (organism code XX) was 0.03 µg/mL. The MIC (organism code YY) was 0.03 µg/mL, the MIC (organism code ZZ) was > 128 µg/mL and the MIC (organism code ZZA) was 0.5 µg/mL.
